Data: ChEMBL document CHEMBL5724914, “Linking interpersonal differences in gut microbiota composition and drug biotransformation activity” (2024)

assay: (§1) The drug is tested on Z-029 corresponding to rat gut metagenome with ENA study accession number: PRJEB37062 and ENA sample accession number: ERS12561828 for biotransformation under anaerobic condition. The drug concentrations were measured over 9 timepoints collected between 0 and 24 hours of incubation by liquid-chromatography-coupled mass spectrometry (LC–MS); settings: 2 µM
Note: call rule not given here.

Bacterial Biotransformation	Compound
Compound NOT metabolized	CC(C)NCC(O)COc1ccc(CC(N)=O)cc1 (stereo not given) [ATENOLOL]
Compound NOT metabolized	CC(=O)OCC(=O)[C@@]1(OC(C)=O)[C@@H](C)C[C@H]2[C@@H]3C[C@H](F)C4=CC(=O)C=C[C@]4(C)[C@@]3(F)[C@@H](O)C[C@@]21C [DIFLORASONE DIACETATE]

assay: as §1, with “on Z-028” for “on Z-029”, “to mouse” for “to rat”, “number: ERS12561827” for “number: ERS12561828”; settings: 2 µM

Bacterial Biotransformation	Compound
Compound NOT metabolized	CC(C)NCC(O)COc1ccc(CC(N)=O)cc1 (stereo not given) [ATENOLOL]
Compound metabolized	CC(=O)OCC(=O)[C@@]1(OC(C)=O)[C@@H](C)C[C@H]2[C@@H]3C[C@H](F)C4=CC(=O)C=C[C@]4(C)[C@@]3(F)[C@@H](O)C[C@@]21C [DIFLORASONE DIACETATE]

assay: as §1, with “on Z-022” for “on Z-029”, “to mouse” for “to rat”, “number: ERS12561821” for “number: ERS12561828”; settings: 2 µM

Bacterial Biotransformation	Compound
Compound NOT metabolized	CC(C)NCC(O)COc1ccc(CC(N)=O)cc1 (stereo not given) [ATENOLOL]
Compound NOT metabolized	CC(=O)OCC(=O)[C@@]1(OC(C)=O)[C@@H](C)C[C@H]2[C@@H]3C[C@H](F)C4=CC(=O)C=C[C@]4(C)[C@@]3(F)[C@@H](O)C[C@@]21C [DIFLORASONE DIACETATE]

assay: as §1, with “on Z-020” for “on Z-029”, “to rabbit” for “to rat”, “number: ERS12561819” for “number: ERS12561828”; settings: 2 µM

Bacterial Biotransformation	Compound
Compound NOT metabolized	CC(C)NCC(O)COc1ccc(CC(N)=O)cc1 (stereo not given) [ATENOLOL]
Compound metabolized	CC(=O)OCC(=O)[C@@]1(OC(C)=O)[C@@H](C)C[C@H]2[C@@H]3C[C@H](F)C4=CC(=O)C=C[C@]4(C)[C@@]3(F)[C@@H](O)C[C@@]21C [DIFLORASONE DIACETATE]

assay: as §1, with “Z-007” for “Z-029”, “ERS12561807” for “ERS12561828”; settings: 2 µM

Bacterial Biotransformation	Compound
Compound NOT metabolized	CC(C)NCC(O)COc1ccc(CC(N)=O)cc1 (stereo not given) [ATENOLOL]
Compound NOT metabolized	CC(=O)OCC(=O)[C@@]1(OC(C)=O)[C@@H](C)C[C@H]2[C@@H]3C[C@H](F)C4=CC(=O)C=C[C@]4(C)[C@@]3(F)[C@@H](O)C[C@@]21C [DIFLORASONE DIACETATE]

assay: as §1, with “on WLS-240” for “on Z-029”, “to human” for “to rat”, “number: ERS12561773” for “number: ERS12561828”; settings: 2 µM

Bacterial Biotransformation	Compound
Compound NOT metabolized	CC(C)NCC(O)COc1ccc(CC(N)=O)cc1 (stereo not given) [ATENOLOL]
Compound metabolized	CC(=O)OCC(=O)[C@@]1(OC(C)=O)[C@@H](C)C[C@H]2[C@@H]3C[C@H](F)C4=CC(=O)C=C[C@]4(C)[C@@]3(F)[C@@H](O)C[C@@]21C [DIFLORASONE DIACETATE]

assay: as §1, with “on WLS-220” for “on Z-029”, “to human” for “to rat”, “number: ERS12561769” for “number: ERS12561828”; settings: 2 µM

Bacterial Biotransformation	Compound
Compound NOT metabolized	CC(C)NCC(O)COc1ccc(CC(N)=O)cc1 (stereo not given) [ATENOLOL]
Compound metabolized	CC(=O)OCC(=O)[C@@]1(OC(C)=O)[C@@H](C)C[C@H]2[C@@H]3C[C@H](F)C4=CC(=O)C=C[C@]4(C)[C@@]3(F)[C@@H](O)C[C@@]21C [DIFLORASONE DIACETATE]

assay: as §1, with “on WLS-170” for “on Z-029”, “to human” for “to rat”, “number: ERS12561762” for “number: ERS12561828”; settings: 2 µM

Bacterial Biotransformation	Compound
Compound metabolized	CC(C)NCC(O)COc1ccc(CC(N)=O)cc1 (stereo not given) [ATENOLOL]
Compound metabolized	CC(=O)OCC(=O)[C@@]1(OC(C)=O)[C@@H](C)C[C@H]2[C@@H]3C[C@H](F)C4=CC(=O)C=C[C@]4(C)[C@@]3(F)[C@@H](O)C[C@@]21C [DIFLORASONE DIACETATE]

assay: as §1, with “on WLS-077” for “on Z-029”, “to human” for “to rat”, “number: ERS12561750” for “number: ERS12561828”; settings: 2 µM

Bacterial Biotransformation	Compound
Compound metabolized	CC(C)NCC(O)COc1ccc(CC(N)=O)cc1 (stereo not given) [ATENOLOL]
Compound metabolized	CC(=O)OCC(=O)[C@@]1(OC(C)=O)[C@@H](C)C[C@H]2[C@@H]3C[C@H](F)C4=CC(=O)C=C[C@]4(C)[C@@]3(F)[C@@H](O)C[C@@]21C [DIFLORASONE DIACETATE]

assay: as §1, with “on WLS-052” for “on Z-029”, “to human” for “to rat”, “number: ERS12561747” for “number: ERS12561828”; settings: 2 µM

Bacterial Biotransformation	Compound
Compound NOT metabolized	CC(C)NCC(O)COc1ccc(CC(N)=O)cc1 (stereo not given) [ATENOLOL]
Compound metabolized	CC(=O)OCC(=O)[C@@]1(OC(C)=O)[C@@H](C)C[C@H]2[C@@H]3C[C@H](F)C4=CC(=O)C=C[C@]4(C)[C@@]3(F)[C@@H](O)C[C@@]21C [DIFLORASONE DIACETATE]

settings: human gut metagenome, 24 h, 2 µM

Bacterial Biotransformation	Compound
Compound NOT metabolized	CC(C)NCC(O)COc1ccc(CC(N)=O)cc1 (stereo not given) [ATENOLOL]
Compound metabolized	CC(=O)OCC(=O)[C@@]1(OC(C)=O)[C@@H](C)C[C@H]2[C@@H]3C[C@H](F)C4=CC(=O)C=C[C@]4(C)[C@@]3(F)[C@@H](O)C[C@@]21C [DIFLORASONE DIACETATE]

settings: human gut metagenome, 24 h, 2 µM; remark: another data set of the same source

Bacterial Biotransformation	Compound
Compound NOT metabolized	CC(C)NCC(O)COc1ccc(CC(N)=O)cc1 (stereo not given) [ATENOLOL]
Compound metabolized	CC(=O)OCC(=O)[C@@]1(OC(C)=O)[C@@H](C)C[C@H]2[C@@H]3C[C@H](F)C4=CC(=O)C=C[C@]4(C)[C@@]3(F)[C@@H](O)C[C@@]21C [DIFLORASONE DIACETATE]

settings: human gut metagenome, 24 h, 2 µM; remark: another data set of the same source

Bacterial Biotransformation	Compound
Compound NOT metabolized	CC(C)NCC(O)COc1ccc(CC(N)=O)cc1 (stereo not given) [ATENOLOL]
Compound metabolized	CC(=O)OCC(=O)[C@@]1(OC(C)=O)[C@@H](C)C[C@H]2[C@@H]3C[C@H](F)C4=CC(=O)C=C[C@]4(C)[C@@]3(F)[C@@H](O)C[C@@]21C [DIFLORASONE DIACETATE]

settings: human gut metagenome, 24 h, 2 µM; remark: another data set of the same source

Bacterial Biotransformation	Compound
Compound NOT metabolized	CC(C)NCC(O)COc1ccc(CC(N)=O)cc1 (stereo not given) [ATENOLOL]
Compound metabolized	CC(=O)OCC(=O)[C@@]1(OC(C)=O)[C@@H](C)C[C@H]2[C@@H]3C[C@H](F)C4=CC(=O)C=C[C@]4(C)[C@@]3(F)[C@@H](O)C[C@@]21C [DIFLORASONE DIACETATE]

settings: human gut metagenome, 24 h, 2 µM; remark: another data set of the same source

Bacterial Biotransformation	Compound
Compound NOT metabolized	CC(C)NCC(O)COc1ccc(CC(N)=O)cc1 (stereo not given) [ATENOLOL]
Compound metabolized	CC(=O)OCC(=O)[C@@]1(OC(C)=O)[C@@H](C)C[C@H]2[C@@H]3C[C@H](F)C4=CC(=O)C=C[C@]4(C)[C@@]3(F)[C@@H](O)C[C@@]21C [DIFLORASONE DIACETATE]

settings: human gut metagenome, 24 h, 2 µM; remark: another data set of the same source

Bacterial Biotransformation	Compound
Compound NOT metabolized	CC(C)NCC(O)COc1ccc(CC(N)=O)cc1 (stereo not given) [ATENOLOL]
Compound metabolized	CC(=O)OCC(=O)[C@@]1(OC(C)=O)[C@@H](C)C[C@H]2[C@@H]3C[C@H](F)C4=CC(=O)C=C[C@]4(C)[C@@]3(F)[C@@H](O)C[C@@]21C [DIFLORASONE DIACETATE]

settings: human gut metagenome, 24 h, 2 µM; remark: another data set of the same source

Bacterial Biotransformation	Compound
Compound NOT metabolized	CC(C)NCC(O)COc1ccc(CC(N)=O)cc1 (stereo not given) [ATENOLOL]
Compound metabolized	CC(=O)OCC(=O)[C@@]1(OC(C)=O)[C@@H](C)C[C@H]2[C@@H]3C[C@H](F)C4=CC(=O)C=C[C@]4(C)[C@@]3(F)[C@@H](O)C[C@@]21C [DIFLORASONE DIACETATE]

settings: human gut metagenome, 24 h, 2 µM; remark: another data set of the same source

Bacterial Biotransformation	Compound
Compound NOT metabolized	CC(C)NCC(O)COc1ccc(CC(N)=O)cc1 (stereo not given) [ATENOLOL]
Compound metabolized	CC(=O)OCC(=O)[C@@]1(OC(C)=O)[C@@H](C)C[C@H]2[C@@H]3C[C@H](F)C4=CC(=O)C=C[C@]4(C)[C@@]3(F)[C@@H](O)C[C@@]21C [DIFLORASONE DIACETATE]

settings: human gut metagenome, 24 h, 2 µM; remark: another data set of the same source

Bacterial Biotransformation	Compound
Compound metabolized	CC(C)NCC(O)COc1ccc(CC(N)=O)cc1 (stereo not given) [ATENOLOL]
Compound metabolized	CC(=O)OCC(=O)[C@@]1(OC(C)=O)[C@@H](C)C[C@H]2[C@@H]3C[C@H](F)C4=CC(=O)C=C[C@]4(C)[C@@]3(F)[C@@H](O)C[C@@]21C [DIFLORASONE DIACETATE]

settings: human gut metagenome, 24 h, 2 µM; remark: another data set of the same source

Bacterial Biotransformation	Compound
Compound metabolized	CC(C)NCC(O)COc1ccc(CC(N)=O)cc1 (stereo not given) [ATENOLOL]
Compound metabolized	CC(=O)OCC(=O)[C@@]1(OC(C)=O)[C@@H](C)C[C@H]2[C@@H]3C[C@H](F)C4=CC(=O)C=C[C@]4(C)[C@@]3(F)[C@@H](O)C[C@@]21C [DIFLORASONE DIACETATE]
